Consider one compound from publication PMC8155809 (The Journal of General Physiology, 2021).

Series [1] in a line: Electrostriction measurement of membrane elasticity. The class given is physicochemical. Conditions: 1–1,000 µM NFx. How it is done: Membrane elasticity measurements were performed as described previously ([Vitovic et al., 2013]). Briefly, a 1 kHz sine wave with an amplitude of 100 mV was applied to the membrane using a wave generator (Rigol DG821; Rigol Technologies). Due to the nonlinear dependence of membrane capacitance on the voltage V [C = C0 (1 + αV^2)], where C0 is the capacitance at V = 0 and α is the electrostriction coefficient, a third current harmonic with frequency 3 kHz and amplitude A3 is generated in addition to the basic first current harmonic, A1 (frequency 1 kHz).

The target in the next series is T1, TREK-2 Y315A (Homo sapiens, UniProt P57789, Y310A).
T1 construct: expressed in transfected cells; host or cells: HEK293 cells, transient transfection with pcDNA3
T1 sequence (P57789 1-543 isoform P57789-4 Y315A): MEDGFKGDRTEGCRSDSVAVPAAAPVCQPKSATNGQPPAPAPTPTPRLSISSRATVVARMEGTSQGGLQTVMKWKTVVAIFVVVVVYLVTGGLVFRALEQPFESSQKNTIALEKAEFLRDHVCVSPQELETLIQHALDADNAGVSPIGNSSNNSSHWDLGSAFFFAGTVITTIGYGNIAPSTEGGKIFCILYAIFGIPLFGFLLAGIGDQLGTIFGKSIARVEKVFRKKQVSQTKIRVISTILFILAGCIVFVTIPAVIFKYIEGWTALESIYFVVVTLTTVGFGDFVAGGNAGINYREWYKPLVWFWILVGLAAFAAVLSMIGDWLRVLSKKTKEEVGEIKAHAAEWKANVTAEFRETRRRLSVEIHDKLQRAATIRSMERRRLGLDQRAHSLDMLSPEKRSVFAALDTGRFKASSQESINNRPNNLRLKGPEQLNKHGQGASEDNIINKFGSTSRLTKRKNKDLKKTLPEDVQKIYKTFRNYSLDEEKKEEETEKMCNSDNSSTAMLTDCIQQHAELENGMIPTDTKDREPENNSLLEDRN
The series is described as follows: Single-channel recordings of TREK-2 Y315A mutant in excised patches from HEK293 cells. The format is cell-based. The note with it: 10 µM NFx; before desensitization (effect dramatically reduced within ∼30 s). How it is done: HEK293 cells were cultured in DMEM (Sigma) containing 10% FBS (Life Technologies), 3 mM glucose, and 2 mM glutamine at 37°C in a humidified atmosphere of 5% CO2/[…] at 37°C. Cells were transiently transfected with 0.2 µg channel pcDNA3 per dish using FuGENE 6 according to the manufacturer’s instructions. Cells were used 1–2 d after transfection.
For currents recorded in Xenopus laevis oocytes, giant-patch electrodes were pulled from thick-walled borosilicate glass and polished to give pipette resistances of ∼0.3–0.5 MΩ when filled with patch solution. […] Patches were perfused via a gravity-flow perfusion system and a HEKA EPC 10 USB single computer–controlled amplifier was used and currents recorded using a Patchmaster v2 × 90.5 (HEKA Electronics), filtered at 1 kHz, and sampled at 10 kHz. For currents recorded in HEK293 cells, patch electrodes were pulled from thick-walled borosilicate glass and polished to give pipette resistances of ∼3–5 MΩ when filled with patch solution. The currents were recorded from excised patches with both intracellular and extracellular solution containing 200 mM KCl and 10 mM HEPES (pH 6.0 with KOH). […] Data were acquired with pClamp and recorded using an Axopatch 200B (Molecular Devices), filtered at 5 kHz, and sampled at 200 kHz. Single-channel currents were analyzed in an identical manner to those obtained from bilayers (see above). […]

Molecules are shown by their SMILES.

As to `NCCC(Oc1ccc(C(F)(F)F)cc1)c1ccccc1` (centres unmarked) [NFx, norfluoxetine], the “effect on the modulus of elasticity (E⊥)” value in series [1] was “no obvious effect”. Also, on TREK-2 Y315A, the “initial reduction of channel Po” value is on record as above 90%.
